Source: US9994552B2, “Compositions useful for treating disorders related to kit” (BLUEPRINT MEDICINES CORPORATION, priority 2013, dated 2018)

Legend:
[1] = target: D816V Kit (Homo sapiens (Human), UniProt P10721, D816V); experiment: Kit D816V assay at Km (Caliper electrophoretic mobility shift); format: biochemical; conditions: for IC50: D816V Kit 0.5 nM, 15 uM ATP (Km), 1 uM Srctide, 25 C, 90 minutes, read-out: INH-KITD816V ENZ-KM IC50 (nM) (Num); for times more potent against the D816V mutant than against the wild-type Kit: D816V Kit versus wild-type Kit, enzyme assays at Km
D816V Kit, sequence (P10721 26-976 D816V): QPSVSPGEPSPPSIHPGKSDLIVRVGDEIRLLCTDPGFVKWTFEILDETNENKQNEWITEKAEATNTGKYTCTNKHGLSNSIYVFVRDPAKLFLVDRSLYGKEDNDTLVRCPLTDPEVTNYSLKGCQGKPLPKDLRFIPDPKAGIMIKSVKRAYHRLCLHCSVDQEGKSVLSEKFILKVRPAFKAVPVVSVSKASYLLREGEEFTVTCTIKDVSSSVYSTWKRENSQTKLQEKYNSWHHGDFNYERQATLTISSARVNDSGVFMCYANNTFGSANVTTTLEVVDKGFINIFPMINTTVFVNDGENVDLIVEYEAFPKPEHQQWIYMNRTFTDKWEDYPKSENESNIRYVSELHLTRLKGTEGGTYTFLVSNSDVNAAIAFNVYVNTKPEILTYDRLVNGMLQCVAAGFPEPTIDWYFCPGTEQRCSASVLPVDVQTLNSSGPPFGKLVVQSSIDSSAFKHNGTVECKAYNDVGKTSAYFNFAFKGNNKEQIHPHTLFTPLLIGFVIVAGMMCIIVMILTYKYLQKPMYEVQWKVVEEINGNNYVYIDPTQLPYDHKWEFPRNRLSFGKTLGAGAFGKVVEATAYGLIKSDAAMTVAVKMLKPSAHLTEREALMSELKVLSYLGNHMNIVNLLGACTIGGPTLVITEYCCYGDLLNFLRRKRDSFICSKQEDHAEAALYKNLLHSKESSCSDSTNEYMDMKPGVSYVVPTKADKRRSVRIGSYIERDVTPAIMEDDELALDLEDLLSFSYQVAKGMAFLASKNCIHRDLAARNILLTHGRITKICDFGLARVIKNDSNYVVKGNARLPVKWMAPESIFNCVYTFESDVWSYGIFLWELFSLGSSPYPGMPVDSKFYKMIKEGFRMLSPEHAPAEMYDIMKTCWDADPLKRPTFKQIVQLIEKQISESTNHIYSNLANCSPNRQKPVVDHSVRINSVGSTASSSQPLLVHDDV
Experimental: (§1) In order to assess the activity of chemical compounds against the relevant kinase of interest, the Caliper LifeSciences electrophoretic mobility shift technology platform is used. Fluorescently labeled substrate peptide is incubated in the presence of kinase and ATP so that a […] proportion of the peptide is phosphorylated. At the end of the reaction, the mix of phosphorylated (product) and non-phosphorylated (substrate) peptides are passed through the microfluidic system of the Caliper EZ Reader 2, under an applied potential difference. The presence of the phosphate group on the product peptide provides a difference in mass and charge between those of the substrate peptide, resulting in a separation of the substrate and product pools in the sample. As the pools pass a LEDS within the instrument, these pools are detected and resolved as separate peaks. The ratio between these peaks therefore reflects the activity of the chemical matter at that concentration in that well, under those conditions.
(§2) The reaction was stopped by the addition of 70 ul of Stop buffer (100 mM HEPES pH 7.5, 0.015% Brij 35, 35 mM EDTA and 0.2% of Coating Reagent 3 (Caliper Lifesciences)). The plate was then read on a Caliper EZReader 2 (protocol settings: −1.9 psi, upstream voltage −700, downstream voltage −3000, post sample sip 35 s).

[2] = target: wild type Kit (Homo sapiens (Human), UniProt P10721); experiment: Kit wild type assay at Km (Caliper electrophoretic mobility shift); format: biochemical; conditions: wild type Kit 2 nM, 400 uM ATP (Km), 1 uM Srctide, 25 C, 90 minutes; read-out: INH-KITWT ENZ-KM IC50 (nM) (Num)
wild type Kit, sequence (P10721 26-976): as the sequence (P10721 26-976 D816V) above, with V791D counted along it
Experimental: as §1, §2

## c1ccc(Cc2cnc(N3CCN(c4ncnc5c4CNC5)CC3)nc2)cc1 [Compound 2]
[1]
  IC50: > 100 nM
[2]
  IC50: > 1000 nM

## COc1cc2ncnc(N3CCN(c4ncc(OCC5CC5)cn4)CC3)c2cc1OC [Compound 6]
[1]
  IC50: > 100 nM
[2]
  IC50: > 1000 nM

## COc1ccc2c(N3CCN(c4ncc(OCc5ccccc5)cn4)CC3)ncnc2c1 [Compound 8]
[1]
  IC50: 10 to 100 nM
[2]
  IC50: > 1000 nM

## COc1cc2ncnc(N3CCN(c4ncc(-c5ccccc5)cn4)CC3)c2cc1OC [Compound 9]
[1]
  IC50: > 100 nM
[2]
  IC50: > 1000 nM

## COc1ccc2ncnc(N3CCN(c4ncc(OCc5ccccc5)cn4)CC3)c2c1 [Compound 10]
[1]
  IC50: > 100 nM
[2]
  IC50: > 1000 nM

## COc1cc2ncnc(N3CCN(c4nccc(Cc5ccccc5)n4)CC3)c2cc1OC [Compound 12]
[1]
  IC50: > 100 nM
[2]
  IC50: > 1000 nM

## COc1cc2ncnc(N3CCN(c4ncc(Oc5ccccc5)cn4)CC3)c2cc1OC [Compound 14, 6,7-dimethoxy-4-(4-(5-phenoxypyrimidin-2-yl)piperazin-1-yl)quinazoline]
[1]
  IC50: 1.01 to 10 nM
[2]
  IC50: 11 to 100 nM

## COc1cc2ncnc(N3CCN(c4ncc(Nc5ccccn5)cn4)CC3)c2cc1OC [Compound 15]
[1]
  IC50: 10 to 100 nM
[2]
  IC50: 100 to 1000 nM

## COc1cc2ncnc(N3CCN(c4ncc(Nc5cccnc5)cn4)CC3)c2cc1OC [Compound 16]
[1]
  IC50: 10 to 100 nM
[2]
  IC50: 100 to 1000 nM

## COc1cc2ncnc(N3CCN(c4ncc(Nc5ccncc5)cn4)CC3)c2cc1OC [Compound 17]
[1]
  IC50: > 100 nM
[2]
  IC50: > 1000 nM

## COc1cc2ncnc(N3CCN(c4ncc(OCC5CCCC5)cn4)CC3)c2cc1OC [Compound 18]
[1]
  IC50: > 100 nM
  times more potent against the D816V mutant than against the wild-type Kit: at least 100 times
[2]
  IC50: > 1000 nM

## COc1cc2ncnc(N3CCN(c4ncc(-c5ccc(C#N)cc5)cn4)CC3)c2cc1OC [Compound 19]
[1]
  IC50: > 100 nM
  times more potent against the D816V mutant than against the wild-type Kit: less than 5 times
[2]
  IC50: > 1000 nM

## COc1cc2ncnc(N3CCN(c4ncc(Cc5ccccc5)cn4)CC3)c2cc1C(N)=O [Compound 20]
[1]
  IC50: 10 to 100 nM
  times more potent against the D816V mutant than against the wild-type Kit: at least 100 times
[2]
  IC50: > 1000 nM

## COc1cc2ncnc(N3CCN(c4ncc(Cc5ccccc5)cn4)C(=O)C3)c2cc1OC [Compound 21]
[1]
  IC50: > 100 nM
  times more potent against the D816V mutant than against the wild-type Kit: less than 5 times
[2]
  IC50: > 1000 nM

## COc1cc2ncnc(N3CCN(c4ncc(CCc5ccccc5)cn4)CC3)c2cc1OC [Compound 24]
[1]
  IC50: 1.01 to 10 nM
[2]
  IC50: 100 to 1000 nM

## COc1cc2ncnc(N3CCN(c4ncc(Cc5ccccc5C)cn4)CC3)c2cc1OC [Compound 25]
[1]
  IC50: 10 to 100 nM
[2]
  IC50: 100 to 1000 nM

## COc1cc2ncnc(N3CCN(c4ncc(Cc5ccccc5)cn4)C(C)C3)c2cc1OC (stereo not drawn) [Compound 26]
[1]
  IC50: 10 to 100 nM
[2]
  IC50: 100 to 1000 nM

## COc1cc2ncnc(N3CCN(c4ncc(Cc5ccccc5)cn4)C[C@@H]3C)c2cc1OC [Compound 27]
[1]
  IC50: > 100 nM
[2]
  IC50: > 1000 nM

## COc1cc2ncnc(N3CCN(c4ncc(Cc5ccccc5)cn4)C[C@H]3C)c2cc1OC [Compound 28]
[1]
  IC50: > 100 nM
  times more potent against the D816V mutant than against the wild-type Kit: less than 5 times
[2]
  IC50: > 1000 nM

## COc1cc2ncnc(N3CCN(c4ncc(Cc5ccccc5)c(N)n4)CC3)c2cc1OC [Compound 29]
[1]
  IC50: < 1 nM
[2]
  IC50: < 10 nM

## COc1cc2ncnc(N3CCN(c4ncc(Nc5ccc(C)cc5)cn4)CC3)c2cc1OC [Compound 31]
[1]
  IC50: 1.01 to 10 nM
[2]
  IC50: 100 to 1000 nM

## COc1cc2ncnc(N3CCN(c4ncc(Nc5ccccc5C)cn4)CC3)c2cc1OC [Compound 32]
[1]
  IC50: 10 to 100 nM
[2]
  IC50: 100 to 1000 nM

## COc1cc2ncnc(N3CCN(c4ncc(Nc5cccc(C)c5)cn4)CC3)c2cc1OC [Compound 33]
[1]
  IC50: 10 to 100 nM
[2]
  IC50: 100 to 1000 nM

## COc1cc2ncnc(N3CCN(c4ncc(NCc5ccccc5)cn4)CC3)c2cc1OC [Compound 34, N-benzyl-2-(4-(6,7-dimethoxyquinazolin-4-yl)piperazin-1-yl)pyrimidin-5-amine]
[1]
  IC50: 10 to 100 nM
[2]
  IC50: 100 to 1000 nM

## COc1cc2ncnc(N3CCN(c4ncc(OCc5ccccc5)cn4)CC3)c2cc1OC [Compound 37, 4-(4-(5-(benzyloxy)pyrimidin-2-yl)piperazin-1-yl)-6,7-dimethoxyquinazoline]
[1]
  IC50: 1.01 to 10 nM
[2]
  IC50: 100 to 1000 nM

## COc1cc2ncnc(N3CCN(c4ncc(Cc5ccc(F)cc5)cn4)CC3)c2cc1OC [Compound 38, 4-(4-(5-(4-fluorobenzyl)pyrimidin-2-yl)piperazin-1-yl)-6,7-dimethoxyquinazoline]
[1]
  IC50: 1.01 to 10 nM
[2]
  IC50: 11 to 100 nM

## COc1cc2ncnc(N3CCN(c4ncc(Cc5cccc(F)c5)cn4)CC3)c2cc1OC [Compound 39]
[1]
  IC50: 1.01 to 10 nM
[2]
  IC50: 100 to 1000 nM

## COc1cc2ncnc(N3CCN(c4ncc(Sc5ccccc5)cn4)CC3)c2cc1OC [Compound 40]
[1]
  IC50: 1.01 to 10 nM
[2]
  IC50: 100 to 1000 nM

## COc1cc2ncnc(N3CCN(c4ncc(Br)c(OC)n4)CC3)c2cc1OC [Compound 41]
[1]
  IC50: > 100 nM
  times more potent against the D816V mutant than against the wild-type Kit: less than 5 times
[2]
  IC50: > 1000 nM

## COc1cc2ncnc(N3CCN(c4ncc(OCc5cccs5)cn4)CC3)c2cc1OC [Compound 43]
[1]
  IC50: 1.01 to 10 nM
[2]
  IC50: 100 to 1000 nM

## COc1cc2ncnc(N3CCN(c4ncc(OCc5ccsc5)cn4)CC3)c2cc1OC [Compound 44]
[1]
  IC50: 10 to 100 nM
[2]
  IC50: 100 to 1000 nM

## COc1cc2ncnc(N3CCN(c4ncc(Cc5ccc(C#N)cc5)cn4)CC3)c2cc1OC [Compound 45]
[1]
  IC50: 1.01 to 10 nM
[2]
  IC50: 100 to 1000 nM

## COc1cc2ncnc(N3CCN(c4ncc(Cc5cccc(C#N)c5)cn4)CC3)c2cc1OC [Compound 46]
[1]
  IC50: 10 to 100 nM
[2]
  IC50: 100 to 1000 nM

## COc1cc2ncnc(N3CCN(c4ncc(Nc5ccc(C#N)cc5)cn4)CC3)c2cc1OC [Compound 47]
[1]
  IC50: 10 to 100 nM
  times more potent against the D816V mutant than against the wild-type Kit: at least 100 times
[2]
  IC50: > 1000 nM

## COc1cc2ncnc(N3C[C@H]4CC[C@@H](C3)N4c3ncc(Cc4ccccc4)cn3)c2cc1OC [Compound 48, 4-((1R,5S)-8-(5-Benzylpyrimidin-2-yl)-3,8-diazabicyclo[3.2.1]octan-3-yl)-6,7-dimethoxyquinazoline]
[1]
  IC50: 1.01 to 10 nM
[2]
  IC50: 11 to 100 nM

## COc1cc2ncnc(N3CCN(c4ncc(N5CCc6ccccc65)cn4)CC3)c2cc1OC [Compound 49]
[1]
  IC50: 10 to 100 nM
[2]
  IC50: 100 to 1000 nM

## c1ccc(Cc2cnc(N3CCN(c4ncnc5c4CN(CC4CCNCC4)C5)CC3)nc2)cc1 [Compound 50]
[1]
  IC50: > 100 nM
  times more potent against the D816V mutant than against the wild-type Kit: less than 5 times
[2]
  IC50: > 1000 nM

## COc1cc2ncnc(N3CCN(c4ncc(C(=O)Nc5ccccc5)cn4)CC3)c2cc1OC [Compound 51]
[1]
  IC50: 10 to 100 nM
[2]
  IC50: > 1000 nM

## COc1cc2ncnc(N3CCN(c4ncc(N(C)Cc5ccccc5)cn4)CC3)c2cc1OC [Compound 52]
[1]
  IC50: 1.01 to 10 nM
[2]
  IC50: 11 to 100 nM

## COc1cc2ncnc(N3CCN(c4ncc(NCc5ccc(C)cc5)cn4)CC3)c2cc1OC [Compound 53]
[1]
  IC50: 10 to 100 nM
[2]
  IC50: 100 to 1000 nM

## COc1cc2c(N3CCN(c4ncc(Cc5ccccc5)cn4)CC3)ncnc2cc1OC(F)F [Compound 72]
[1]
  IC50: 10 to 100 nM

## COc1cc2ncnc(N3CCN(c4ncc(NCc5ccc6c(c5)OCO6)cn4)CC3)c2cc1OC [Compound 83]
[1]
  IC50: > 100 nM
